Experimental data from patent US10508086B2 (CANCER RESEARCH TECHNOLOGY LIMITED, priority 2014, dated 2019).
pEC50: −log10 of the molar value.

Target: Human Full Length PARG (Homo sapiens (Human), UniProt Q86W56)
Experiment: PARG in vitro enzyme assay (TR-FRET)
Format: biochemical
Conditions: read-out: PARG_EC50_ENZYME
Description: PARG In vitro assays were conducted in a total volume of 15 ul in a standard 384 well format. 5 ul of Human Full Length PARG (Produced internally by Astra Zeneca), used at a final reaction concentration of […], was added to 5 ul of Ribosylated PARP substrate (also produced internally by Astra Zeneca) at final reaction concentration of 4.5 nM in assay buffer (50 mM Tris pH7.4, 0.1 mg/ml BSA, 3 mM EDTA, 0.4 mM EGTA, 1 mM DTT, 0.01% Tween 20, 50 mM KCl). The reaction was incubated at room temperature for 10 minutes and then 5 ul detection reagent was added. Detection Reagent consists of 42 nM MAb Anti-6HIS XL665 (CisBio: 61 HISXLB) and 2.25 nM Streptavidin Europium Cryptate (CisBio: 610SAKLB), both at 3× working stock concentrations (final concentrations of 14 nM and 0.75 nM respectively), in a detection buffer of 50 mM Tris pH7.4, BSA at 0.1 mg/ml and KF at 100 mM. Following incubation at room temperature for 60 minutes in the dark, TR-FRET signal was measured at Ex 340 and Em 665 and Em 620. A ratio was calculated as Em665/EM620×104 for each well and used to calculate percent inhibition for test compounds.

Human Full Length PARG, sequence (Q86W56 whole entry): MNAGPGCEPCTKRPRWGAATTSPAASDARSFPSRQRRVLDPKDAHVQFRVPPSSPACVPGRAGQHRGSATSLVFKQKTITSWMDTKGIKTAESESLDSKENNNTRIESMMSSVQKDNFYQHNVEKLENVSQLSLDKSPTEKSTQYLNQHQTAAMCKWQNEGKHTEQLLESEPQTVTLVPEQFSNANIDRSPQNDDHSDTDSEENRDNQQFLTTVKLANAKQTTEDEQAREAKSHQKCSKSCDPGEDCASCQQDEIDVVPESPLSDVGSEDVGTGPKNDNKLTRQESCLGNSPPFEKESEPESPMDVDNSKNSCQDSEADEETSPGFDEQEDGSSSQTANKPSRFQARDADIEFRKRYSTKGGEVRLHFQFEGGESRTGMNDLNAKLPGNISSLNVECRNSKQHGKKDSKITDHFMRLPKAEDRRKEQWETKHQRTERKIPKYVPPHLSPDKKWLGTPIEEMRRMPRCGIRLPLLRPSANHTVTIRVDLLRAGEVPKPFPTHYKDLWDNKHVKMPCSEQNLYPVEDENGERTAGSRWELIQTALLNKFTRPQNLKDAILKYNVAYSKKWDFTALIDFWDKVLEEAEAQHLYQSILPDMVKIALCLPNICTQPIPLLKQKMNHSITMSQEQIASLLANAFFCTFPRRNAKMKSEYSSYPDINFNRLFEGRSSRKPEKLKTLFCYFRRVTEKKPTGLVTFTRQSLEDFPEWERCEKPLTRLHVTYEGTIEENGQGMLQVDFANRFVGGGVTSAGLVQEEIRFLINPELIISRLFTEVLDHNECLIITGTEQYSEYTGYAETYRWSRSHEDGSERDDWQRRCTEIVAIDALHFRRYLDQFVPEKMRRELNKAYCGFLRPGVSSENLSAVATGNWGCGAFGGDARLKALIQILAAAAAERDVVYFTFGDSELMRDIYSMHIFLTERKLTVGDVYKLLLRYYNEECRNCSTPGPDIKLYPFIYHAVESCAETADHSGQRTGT

| pEC50 | SMILES |
| --- | --- |
| 5.30 | Cn1c(=O)n(-c2nncs2)c2cc(S(=O)(=O)NC3(C)CC3)ccc21 [Example 77] |
| 6.14 | Cn1c(=O)n(-c2nnc(C(F)(F)F)s2)c2cc(S(=O)(=O)NC3(C)CC3)ccc21 [Example 78] |
| 6.14 | Cc1nnc(-n2c(=O)[nH]c3ccc(S(=O)(=O)NC4(C)CC4)cc32)s1 [Example 80, N-(1-Methylcyclopropyl)-3-(5-methyl-1,3,4-thiadiazol-2-yl)-2-oxo-1H-benzimidazole-5-sulfonamide] |
| 6.16 | Cc1nnc(-n2c(=O)n(CCN(C)C)c3ccc(S(=O)(=O)NC4(C)CC4)cc32)s1 [Example 85] |
| 6.17 | Cc1nnc(-n2c(=O)n(C)c3c(F)cc(S(=O)(=O)NC4(C)CC4)cc32)s1 [Example 114, 7-Fluoro-1-methyl-N-(1-methylcyclopropyl)-3-(5-methyl-1,3,4-thiadiazol-2-yl)-2-oxo-benzimidazole-5-sulfonamide] |
| 5.63 | Cc1nnc(-n2ccc3ccc(S(=O)(=O)NC4(C)CC4)cc32)s1 [Example 115, N-(1-Methylcyclopropyl)-1-(5-methyl-1,3,4-thiadiazol-2-yl)indole-6-sulfonamide] |
| 6.06 | Cc1nnc(-n2c(Cc3cnn(C)c3)nc3ccc(S(=O)(=O)NC4(C)CC4)cc32)s1 [Example 120] |
| 5.99 | Cc1nnc(-n2c(CCc3cnn(C)c3)nc3ccc(S(=O)(=O)NC4(C)CC4)cc32)s1 [Example 121] |
| 5.82 | Cc1nnc(-n2c(C)nc3ccc(S(=O)(=O)NC4(C)CC4)cc32)s1 [Example 122] |
| 6.13 | Cc1nnc(-n2c(=O)n(C)c3c(C(F)(F)F)cc(S(=O)(=O)NC4(C)CC4)cc32)s1 [Example 123, 1-Methyl-N-(1-methylcyclopropyl)-3-(5-methyl-1,3,4-thiadiazol-2-yl)-2-oxo-7-(trifluoromethyl)benzimidazole-5-sulfonamide] |
| 5.11 | CC(=O)NCc1nc2ccc(S(=O)(=O)NC3(C)CC3)cc2n1-c1nnc(C)s1 [Example 124] |
| 5.59 | Cc1nnc(-n2c(CCN)nc3ccc(S(=O)(=O)NC4(C)CC4)cc32)s1 [Example 125] |
| 5.68 | Cc1nnc(-n2cc(CC3CC3)c3ccc(S(=O)(=O)NC4(C)CC4)cc32)s1 [Example 128, 3-(Cyclopropylmethyl)-N-(1-methylcyclopropyl)-1-(5-methyl-1,3,4-thiadiazol-2-yl)indole-6-sulfonamide] |
| 6.25 | Cc1nnc(-n2c(=O)n(CC3CCCN(C)C3)c3ccc(S(=O)(=O)NC4(C)CC4)cc32)s1 (stereo not shown) [Example 136] |

Continued, molecule first:

| SMILES | pEC50 |
| --- | --- |
| CN(C)C(=O)CCc1cnc(-n2c(=O)n(C)c3ccc(S(=O)(=O)NC4(C)CC4)cc32)s1 [Example 71, N, N-Dimethyl-3-[2-[3-methyl-6-[(1-methylcyclopropyl)sulfamoyl]-2-oxo-benzimidazol-1-yl]thiazol-5-yl]propanamide] | 5.15 |
| CC1(NS(=O)(=O)c2ccc3c(c2)[nH]c(=O)n3Cc2ccc(F)cc2)CC1 [Example 72, 1-[(4-Fluorophenyl)methyl]-N-(1-methylcyclopropyl)-2-oxo-3H-benzimidazole-5-sulfonamide] | 5.08 |
| CNC(=O)CCc1cnc(-n2c(=O)n(C)c3ccc(S(=O)(=O)NC4(C)CC4)cc32)s1 [Example 74, N-methyl-3-[2-[3-methyl-6-[(1-methylcyclopropyl)sulfamoyl]-2-oxo-benzimidazol-1-yl]thiazol-5-yl]propanamide] | 5.01 |
| CCOC(=O)n1c(=O)n(Cc2ccc(F)cc2)c2ccc(S(=O)(=O)NC3(C)CC3)cc21 [Example 75] | 6.03 |
| CC1(NS(=O)(=O)c2ccc3c(c2)n(-c2nccs2)c(=O)n3Cc2ccc(F)cc2)CC1 [Example 76] | 5.57 |
| Cc1nc(C)c(Cn2c(=O)[nH]c3cc(S(=O)(=O)NC4(C)CC4)ccc32)s1 [Example 89, 1-[(2,4-Dimethylthiazol-5-yl)methyl]-N-(1-methylcyclopropyl)-2-oxo-3H-benzimidazole-5-sulfonamide] | 5.03 |
| Cc1nc(C)c(Cn2c(=O)n(-c3cnsc3)c3cc(S(=O)(=O)NC4(C)CC4)ccc32)s1 [Example 93] | 5.87 |
| Cc1nnc(-n2c(=O)[nH]c3ccc(S(=O)(=O)NC4(C)CC4)cc32)o1 [Example 94, N-(1-Methylcyclopropyl)-3-(5-methyl-1,3,4-oxadiazol-2-yl)-2-oxo-1H-benzimidazole-5-sulfonamide] | 5.84 |
| Cc1nc(C)c(Cn2c(=O)n(-c3cscn3)c3cc(S(=O)(=O)NC4(C)CC4)ccc32)s1 [Example 95] | 6.13 |
| Cc1nc(C)c(Cn2c(=O)n(-c3ccn(C)n3)c3cc(S(=O)(=O)NC4(C)CC4)ccc32)s1 [Example 96] | 5.15 |
| Cc1nc(C)c(Cn2c(=O)n(-c3cncs3)c3cc(S(=O)(=O)NC4(C)CC4)ccc32)s1 [Example 97] | 6.09 |
| Cc1csc(-n2c(=O)n(Cc3sc(C)nc3C)c3ccc(S(=O)(=O)NC4(C)CC4)cc32)n1 [Example 106] | 5.82 |
| Cc1nc(C)c(Cn2c(=O)n(-c3cccnn3)c3cc(S(=O)(=O)NC4(C)CC4)ccc32)s1 [Example 109] | 6.06 |
| Cc1nc(C)c(Cn2c(=O)n(-c3nncs3)c3cc(S(=O)(=O)NC4(C)CC4)ccc32)s1 [Example 110] | 6.63 |
| Cc1nc(C)c(Cn2c(=O)n(C3=CCCC3)c3cc(S(=O)(=O)NC4(C)CC4)ccc32)s1 [Example 113] | 6.20 |
| Cc1nnc(-n2cc(Cc3ccccc3)c3ccc(S(=O)(=O)NC4(C)CC4)cc32)s1 [Example 126, 3-Benzyl-N-(1-methylcyclopropyl)-1-(5-methyl-1,3,4-thiadiazol-2-yl)indole-6-sulfonamide] | 5.37 |
| Cc1nnc(-n2cc(Cc3ccc(F)cc3)c3ccc(S(=O)(=O)NC4(C)CC4)cc32)s1 [Example 127, 3-[(4-Fluorophenyl)methyl]-N-(1-methylcyclopropyl)-1-(5-methyl-1,3,4-thiadiazol-2-yl)indole-6-sulfonamide] | 5.22 |
| CCOC(=O)n1cc(Cc2sc(C)nc2C)c2ccc(S(=O)(=O)NC3(C)CC3)cc21 [Example 132, Ethyl 3-[(2,4-dimethylthiazol-5-yl)methyl]-6-[(1-methylcyclopropyl)sulfamoyl]indole-1-carboxylate] | 5.13 |
| Cc1nnc(-n2c(=O)n(CCCN(C)C)c3ccc(S(=O)(=O)NC4(C)CC4)cc32)o1 [Example 133] | 5.95 |
| COCCn1c(=O)n(-c2nnc(C)o2)c2cc(S(=O)(=O)NC3(C)CC3)ccc21 [Example 134] | 6.04 |
| Cc1nnc(-n2c(=O)n(CCN(C)C)c3ccc(S(=O)(=O)NC4(C)CC4)cc32)o1 [Example 137] | 5.64 |
| Cc1nnc(-n2c(=O)n(CC3CCCCN3C)c3ccc(S(=O)(=O)NC4(C)CC4)cc32)o1 (stereo not shown) [Example 138] | 5.99 |
| Cc1nnc(-n2c(=O)n(CC3CCCN(C)C3)c3ccc(S(=O)(=O)NC4(C)CC4)cc32)o1 (stereo not shown) [Example 139] | 5.94 |
| Cc1nnc(-n2c(=O)n(CCN3CCCCC3)c3ccc(S(=O)(=O)NC4(C)CC4)cc32)o1 [Example 140] | 5.71 |
| Cc1nnc(-n2c(=O)n(CCN3CCOCC3)c3ccc(S(=O)(=O)NC4(C)CC4)cc32)o1 [Example 141] | 5.95 |
| Cc1nnc(-n2c(=O)n(CCN3CCCC3)c3ccc(S(=O)(=O)NC4(C)CC4)cc32)o1 [Example 142] | 5.42 |
